Reference: ChEMBL document CHEMBL3621057, “Multicomponent Synthesis and Biological Evaluation of a Piperazine-Based Dopamine Receptor Ligand Library” (ACS Med Chem Lett, 2015)
Active and inactive are the calls of the source. No cut-off for these calls is given here.

Legend:
[1] = target: T1, D(4) dopamine receptor (Homo sapiens, UniProt P21917); assay: Displacement of [3H]spiperone from human dopamine D4 receptor expressed in CHO cells; type: cell-based
T1 sequence (P21917 whole entry): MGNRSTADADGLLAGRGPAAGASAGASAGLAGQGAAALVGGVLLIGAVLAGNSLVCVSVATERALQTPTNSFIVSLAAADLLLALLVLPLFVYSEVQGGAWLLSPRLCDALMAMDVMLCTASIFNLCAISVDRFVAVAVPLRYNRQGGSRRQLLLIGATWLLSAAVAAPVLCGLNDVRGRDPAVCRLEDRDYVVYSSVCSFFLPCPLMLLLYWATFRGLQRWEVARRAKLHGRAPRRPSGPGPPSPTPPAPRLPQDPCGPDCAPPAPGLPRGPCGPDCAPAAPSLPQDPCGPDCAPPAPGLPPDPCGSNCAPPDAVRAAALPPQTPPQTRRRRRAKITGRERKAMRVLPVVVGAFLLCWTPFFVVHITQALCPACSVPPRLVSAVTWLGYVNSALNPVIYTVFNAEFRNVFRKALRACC

[2] = target: T2, D(2) dopamine receptor (Homo sapiens, UniProt P14416); assay: Antagonist activity at human D2S receptor transfected in HEK293T cells assessed as forskolin-induced cAMP accumulation by BRET assay; type: functional, cell-based; conditions: HEK-293T
[3] = target: D(1A) dopamine receptor (Homo sapiens, UniProt P21728); assay: Displacement of [3H]SCH23390 from human dopamine D1 receptor expressed in HEK cells; type: cell-based, HEK293
[4] = target: D(1B) dopamine receptor (Homo sapiens, UniProt P21918); assay: Displacement of [3H]SCH23390 from human dopamine D5 receptor expressed in HEK cells; type: cell-based, HEK293
[5] = target: T2, D(2) dopamine receptor; assay: Displacement of [3H]spiperone from human dopamine D2L receptor expressed in CHO cells; type: cell-based
[6] = target: D(3) dopamine receptor (Homo sapiens, UniProt P35462); assay: Displacement of [3H]spiperone from human dopamine D3 receptor expressed in CHO cells; type: cell-based
[7] = target: T2, D(2) dopamine receptor; assay: Displacement of [3H]spiperone from human dopamine D2S receptor expressed in CHO cells; type: cell-based

Sequence of D(3) dopamine receptor (P35462 whole entry): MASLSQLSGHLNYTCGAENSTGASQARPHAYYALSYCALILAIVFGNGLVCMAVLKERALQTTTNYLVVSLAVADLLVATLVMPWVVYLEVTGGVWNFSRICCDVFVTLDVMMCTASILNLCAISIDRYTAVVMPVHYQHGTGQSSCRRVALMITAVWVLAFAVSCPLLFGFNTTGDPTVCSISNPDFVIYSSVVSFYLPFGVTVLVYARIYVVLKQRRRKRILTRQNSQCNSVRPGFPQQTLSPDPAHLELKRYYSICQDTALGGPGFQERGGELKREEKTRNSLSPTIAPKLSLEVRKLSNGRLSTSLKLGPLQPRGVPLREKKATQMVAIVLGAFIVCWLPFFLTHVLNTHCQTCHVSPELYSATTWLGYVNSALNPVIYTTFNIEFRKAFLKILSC
T2 sequence (P14416 whole entry): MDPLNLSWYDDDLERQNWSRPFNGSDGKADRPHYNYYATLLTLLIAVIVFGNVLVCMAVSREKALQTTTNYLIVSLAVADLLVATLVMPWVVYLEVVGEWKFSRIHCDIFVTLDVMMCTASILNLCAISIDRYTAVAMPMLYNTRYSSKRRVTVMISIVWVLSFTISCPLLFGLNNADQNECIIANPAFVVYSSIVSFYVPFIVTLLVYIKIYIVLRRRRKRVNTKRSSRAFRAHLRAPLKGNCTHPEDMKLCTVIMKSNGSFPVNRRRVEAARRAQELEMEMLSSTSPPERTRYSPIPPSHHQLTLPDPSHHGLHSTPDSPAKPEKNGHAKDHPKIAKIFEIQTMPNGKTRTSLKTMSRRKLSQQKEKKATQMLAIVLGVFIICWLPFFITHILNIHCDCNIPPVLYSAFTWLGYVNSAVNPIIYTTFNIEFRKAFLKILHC
Sequence of D(1B) dopamine receptor (P21918 whole entry): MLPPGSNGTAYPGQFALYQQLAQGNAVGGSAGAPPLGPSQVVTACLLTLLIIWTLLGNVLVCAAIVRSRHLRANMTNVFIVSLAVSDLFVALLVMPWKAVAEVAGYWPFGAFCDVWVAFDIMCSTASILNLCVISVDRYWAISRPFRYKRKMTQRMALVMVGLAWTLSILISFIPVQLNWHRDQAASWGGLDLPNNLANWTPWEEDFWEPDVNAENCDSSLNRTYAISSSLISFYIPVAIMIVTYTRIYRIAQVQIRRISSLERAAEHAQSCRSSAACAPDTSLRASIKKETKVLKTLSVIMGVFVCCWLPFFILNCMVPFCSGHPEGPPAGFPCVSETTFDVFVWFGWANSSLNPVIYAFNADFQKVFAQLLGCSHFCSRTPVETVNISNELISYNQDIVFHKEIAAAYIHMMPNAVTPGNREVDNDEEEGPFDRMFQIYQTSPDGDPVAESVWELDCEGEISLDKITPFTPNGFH
Sequence of D(1A) dopamine receptor (P21728 whole entry): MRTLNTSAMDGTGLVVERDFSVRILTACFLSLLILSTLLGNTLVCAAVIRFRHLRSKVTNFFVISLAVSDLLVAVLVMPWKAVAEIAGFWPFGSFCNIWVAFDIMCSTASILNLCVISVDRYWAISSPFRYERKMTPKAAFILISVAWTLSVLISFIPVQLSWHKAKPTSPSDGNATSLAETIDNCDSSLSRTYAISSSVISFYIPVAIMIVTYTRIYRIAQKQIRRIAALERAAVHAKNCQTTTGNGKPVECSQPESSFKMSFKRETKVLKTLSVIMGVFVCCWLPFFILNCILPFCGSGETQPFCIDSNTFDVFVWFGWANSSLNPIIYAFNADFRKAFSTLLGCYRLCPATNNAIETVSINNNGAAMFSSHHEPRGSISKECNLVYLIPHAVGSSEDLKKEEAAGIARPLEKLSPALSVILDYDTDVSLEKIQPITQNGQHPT

Row | SMILES | Ki [5] [nM] | Ki [6] [nM] | Ki [1] [nM] | Activity [2] | Ki [3] [nM] | Ki [4] [nM] | Ki [7] [nM]
1 | CCCN(CCN1CCN(CCc2c[nH]c3ccccc23)CC1)c1ccc(Br)cc1 | 58 | 89 | 0.72 | Active | 250 | 1300 | 51
2 | Brc1ccc(NCCN2CCN(Cc3cc4ccccc4[nH]3)CC2)cc1 | 920 | 2300 | – | – | – | – | –
3 | COc1ccc(NCCN2CCN(CCc3c[nH]c4ccccc34)CC2)cc1 | 430 | 620 | – | – | – | – | –
4 | Brc1ccc(CNCCN2CCN(Cc3cc4ccccc4[nH]3)CC2)cc1 | 5200 | 1800 | – | – | – | – | –
5 | Brc1ccc(NCCN2CCN(CCc3c[nH]c4ccccc34)CC2)cc1 | 53 | 200 | 20 | Active | 480 | 3600 | 48
6 | CCCN(CCN1CCN(CCc2c[nH]c3ccccc23)CC1)c1ccc(OC)cc1 | 120 | 280 | – | – | – | – | –

More lines, main results first:

Row | Ki [5] [nM] | Ki [6] [nM] | SMILES | Ki [1] [nM] | Activity [2] | Ki [3] [nM] | Ki [4] [nM] | Ki [7] [nM]
7 | 520 | 1300 | CCCN(CCN1CCN(Cc2cc3ccccc3[nH]2)CC1)c1ccc(OC)cc1 | – | – | – | – | –
8 | 7500 | 18000 | COc1ccc(NCCN2CCN(Cc3cc4ccccc4[nH]3)CC2)cc1 | – | – | – | – | –
9 | 4000 | 4300 | COc1ccc(CNCCN2CCN(Cc3cc4ccccc4[nH]3)CC2)cc1 | – | – | – | – | –
10 | 220 | 600 | CCCN(CCN1CCN(Cc2cc3ccccc3[nH]2)CC1)c1ccc(Br)cc1 | – | – | – | – | –
11 | 920 | 930 | CCCN(CCN1CCN(Cc2cc3ccccc3[nH]2)CC1)Cc1ccc(Br)cc1 | – | – | – | – | –
12 | 4100 | 4600 | CCCN(CCN1CCN(Cc2cc3ccccc3[nH]2)CC1)Cc1ccc(OC)cc1 | – | – | – | – | –
